The record followed here is ChEMBL document CHEMBL4725373, “Introduction of Scaffold Nitrogen Atoms Renders Inhibitors of the Malarial l-Lactate Transporter, PfFNT, Effective against the Gly107Ser Resistance Mutation” (J Med Chem, 2020).

Calls of active or inactive are those of the source. The rule behind the calls is not given here.

The nature of assay [1]: Inhibition of Plasmodium falciparum FNT G107S mutant expressed in Saccharomyces cerevisiae W303-1A del-jen1 ady2-del (MATa, can1-100, ade2-loc, his3-11-15, leu2-3,-112, trp1-1-1, ura3-1, jen1::kanMX4, ady2::hphMX4) assessed as reduction in [1-14C]-L-lactate uptake incubated for 10 to 15 mins followed by [1-14C]-L-lactate addition and measured after 120 secs by liquid scintillation counting method.

A short description of assay [2]: Inhibition of Plasmodium falciparum FNT expressed in Saccharomyces cerevisiae W303-1A del-jen1 ady2-del (MATa, can1-100, ade2-loc, his3-11-15, leu2-3,-112, trp1-1-1, ura3-1, jen1::kanMX4, ady2::hphMX4) assessed as reduction in [1-14C]-L-lactate uptake incubated for 10 to 15 mins followed by [1-14C]-L-lactate addition and measured after 30 secs by liquid scintillation counting method.

Assay [3] deals with Plasmodium falciparum. Description: Antiplasmodial activity against Plasmodium falciparum 3D7 assessed as reduction in parasitemia incubated for 48 hrs supplemented with fresh medium containing compound at 24 hrs by LSR II FACS method. Type of assay: functional, organism-based.
Assay [4] in a line: Inhibition of Plasmodium falciparum FNT G107S mutant expressed in Saccharomyces cerevisiae W303-1A del-jen1 ady2-del (MATa, can1-100, ade2-loc, his3-11-15, leu2-3,-112, trp1-1-1, ura3-1, jen1::kanMX4, ady2::hphMX4) assessed as reduction in [1-14C]-L-lactate uptake incubated for 20 mins followed by [1-14C]-L-lactate addition by liquid scintillation counting method.
The test system of assay [5] is Plasmodium falciparum. Briefly: Antiplasmodial activity against Plasmodium falciparum 3D7 assessed as reduction in parasite regrowth at 0.45 uM incubated for 14 days followed by compound washout and measured after 7 days. Type of assay: functional, organism-based. The following applies: time 14.0 day.
Assay [6] has as its system Plasmodium falciparum. Description: Antiplasmodial activity against Plasmodium falciparum 3D7 assessed as reduction in parasitemia after 24 hrs by LSR II FACS method. Type of assay: functional, organism-based. The following applies: 3D7, 24 h. (In general: In flow cytometry, cells or beads pass a laser one at a time.)
Assay [7] can be described thus: Inhibition of Plasmodium falciparum FNT expressed in Saccharomyces cerevisiae W303-1A del-jen1 ady2-del (MATa, can1-100, ade2-loc, his3-11-15, leu2-3,-112, trp1-1-1, ura3-1, jen1::kanMX4, ady2::hphMX4) assessed as reduction in [1-14C]-L-lactate uptake incubated for 20 mins followed by [1-14C]-L-lactate addition by liquid scintillation counting method.
Assay [8] deals with Plasmodium falciparum. Description: Antiplasmodial activity against Plasmodium falciparum 3D7 assessed as reduction in parasite regrowth at 0.75 uM incubated for 14 days followed by compound washout and measured after 30 days. Type of assay: functional, organism-based. The following applies: time 14.0 day.

As a reminder, the IC50 is the midpoint of a concentration-inhibition curve. Consider `O=C(/C=C(\O)C(F)(F)C(F)(F)F)Nc1ccccc1`, for which the IC50 in assay [1] was 378 µM; in assay [2] it was 18 µM.
As for `O=C(/C=C(\O)C(F)(F)C(F)(F)F)c1cnc2ccccc2c1`, the figures for the IC50 in assay [1] and in assay [2] were 96 µM and 0.24 µM, respectively.
What is called EC50 is the concentration giving half of the maximal effect. Take `O=C(/C=C(\O)C(F)(F)C(F)(F)F)c1ccccn1`: the IC50 in assay [1] amounted to 0.58 µM; in assay [2], 0.15 µM. Further, the EC50 in assay [3] is 13.5 µM.
With `O=C(/C=C(\O)C(F)(F)C(F)(F)F)c1cc2ccccc2o1`, the IC50 in assay [1] was determined as 17 µM; in assay [2], 0.19 µM.
Regarding `COc1ccc(C(=O)/C=C(\O)C(F)(F)C(F)(F)F)c(O)c1`, the half-maximal inhibitory concentration (IC50) in assay [4] is 20 µM; in assay [7] it was 0.17 µM. Also, the outcome in assay [5] was inactive. Further, in assay [6], the EC50 was 0.14 µM.
As for `O=C(/C=C(\O)C(F)(F)C(F)(F)F)c1cccnn1`, the IC50 was determined as 3.8 µM in assay [1] and 0.86 µM in assay [2].
Regarding `Cc1[nH]nc(C(F)(F)F)c1Cc1sc2c(c1C(=O)N1C[C@](C)(O)CO1)c(=O)n(C)c(=O)n2C(C)C`, the result in assay [3] was inactive.
Regarding `COc1ccc(CCC(=O)/C=C(\O)C(F)(F)C(F)(F)F)cc1`, the IC50 in assay [1] worked out at 6.3 µM; in assay [2] it was 0.19 µM.
For `O=C(/C=C(\O)C(F)(F)C(F)(F)F)c1cc[nH]c1` the same measures were 13 µM and 0.2 µM.
The corresponding values for `O=C(/C=C(\O)C(F)(F)C(F)(F)F)c1ccncc1` are 22 µM and 0.15 µM.
The corresponding values for `CC(C)(O)CC(=O)/C=C(\O)C(F)(F)C(F)(F)F` are 490 µM and 1.1 µM.
Consider `CCCCC(F)(F)/C(O)=C/C(=O)c1cccnc1`, for which the half-maximal inhibitory concentration (IC50) turned out to be 24 µM in assay [1] and 0.36 µM in assay [2]. In assay [3], the EC50 stood at 20.1 µM.
With `Cc1ccc(C(=O)/C=C(\O)C(F)(F)C(F)(F)F)cn1`, the IC50 in assay [1] amounted to 1.7 µM; in assay [2] it was 0.15 µM.
With `O=C(/C=C(\O)C(F)(F)C(F)(F)F)c1ccc(Cl)cn1`, the IC50 in assay [1] turned out to be 0.51 µM; in assay [2] it was 0.23 µM. Besides, the EC50 in assay [3] was determined as 14 µM.
Take `COc1ccc(C(=O)/C=C(\O)C(F)(F)C(F)(F)F)cc1`: the values for the IC50 in assay [4] and in assay [7] were 2.6 µM and 0.14 µM, respectively. For the same compound, in assay [6], the EC50 is 3.4 µM.
`O=C(/C=C(\O)C(F)(F)C(F)(F)F)c1ccc[nH]1`: the IC50 in assay [1] was 12 µM; in assay [2], 0.16 µM.
For `O=C(/C=C(\O)C(F)(F)C(F)(F)F)c1cnccn1` the same measures were 1.2 µM and 0.46 µM.
For `O=C(/C=C(\O)C(F)(F)C(F)(F)F)c1cccnc1`, the IC50 in assay [1] was determined as 0.63 µM; in assay [2], 0.11 µM. For the same compound, the outcome in assay [8] was Active. Further, the EC50 in assay [3] was found to be 0.24 µM.
In the case of `Cn1ccc(C(=O)/C=C(\O)C(F)(F)C(F)(F)F)c1`, the IC50 came out at 14 µM in assay [1] and 0.13 µM in assay [2].
Regarding `O=C(/C=C(\O)C(F)(F)CO)c1cccnc1`, the concentration for half-maximal inhibition (IC50) in assay [2] came out at 5.5 µM.
`COc1ccc(C(=O)/C=C(\O)C(F)(F)C(F)(F)F)cn1`: the values for the IC50 in assay [1] and in assay [2] were 0.26 µM and 0.11 µM, respectively. Moreover, the EC50 in assay [3] was found to be 3.88 µM.
`COc1ccc(CC(=O)/C=C(\O)C(F)(F)C(F)(F)F)cc1`: the figures for the IC50 in assay [1] and in assay [2] were 69 µM and 1.9 µM, respectively.
The corresponding values for `O=C(/C=C(\O)C(F)(F)C(F)(F)F)/C=C/c1ccccc1` are 26 µM and 0.29 µM.
